Consider 68 sequences from the supplement of paper PMC11208160.

This series is described as follows: recombinant UMI read abundance after kanamycin selection (control-corrected) (log10(CPM+1)); higher = more efficient recombination; extreme values may be limits of the assay; sequences stand for … in AGTGCAGAGAAAATCGGCCAGTTTTCTCTGCCTGCAGTCCGCATGCCGTGGGACCCCTTGGGTTCTAACCTGTTGCCTAGATTTATGCAGCGGACTGCCTTTCTCCCAAAGTGATAAACCGG…AGGTTGGTTTCACT; site = the 11-nt donor. The gist of the method: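 Two replicates each of selected and unselected plating were used in this pooled Escherichia coli screen of donor and donor-binding-loop pairs for the IS621 bridge recombinase. Selection was with IPTG (0.07 mM) and kanamycin. Counts of recombinant UMIs, amplified across the donor–target junction, were converted to CPM, averaged, scaled by control-derived factors and reported as log10(CPM+1).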
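Further: IS621 bridge recombinase in Escherichia coli cells against a fixed T5 target plasmid.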

In the case of “CCTAGAACATGGACCGGTTTTCCCGGTAATCCGTATTTGAG (site ACTAGAACTCT)”, the “recombinant UMI read abundance (log10)” value stood at 0.00253. Take “CCTAGAACATGGACCGGTTTTCCCGGTAATCCGTATTTGAG (site CCTAGAACTCT)”: the “recombinant UMI read abundance (log10)” value was determined as 0.00591. As for “CCTAGAACATGGACCGGTTTTCCCGGTAATCCGTATTTGAG (site GCTAGAACTCT)”, the figure is 0.0133; as for “CCTAGAACATGGACCGGTTTTCCCGGTAATCCGTATTTGAG (site TCTAGAACTCT)”, 0.00636. As for “CCTAGAGCATGGACCGGTTTTCCCGGTAATCCGTATTTGTT (site CCTAGAGCTAA)”, the “recombinant UMI read abundance (log10)” value came out at 0.633.

For the sequence “CCTAGGTCATGGACCGGTTTTCCCGGTAATCCGTATTTGCC (site CCTAGGTCTGG)”, the “recombinant UMI read abundance (log10)” value stood at 0. Regarding “CCTAGTGCATGGACCGGTTTTCCCGGTAATCCGTATTTGGT (site ACTAGTGCTAC)”, the “recombinant UMI read abundance (log10)” value came out at 0.00584. The value for “CCTAGTGCATGGACCGGTTTTCCCGGTAATCCGTATTTGGT (site CCTAGTGCTAC)” was 0.533; that for “CCTAGTGCATGGACCGGTTTTCCCGGTAATCCGTATTTGGT (site GCTAGTGCTAC)” was 0.0365. In the case of “CCTAGTGCATGGACCGGTTTTCCCGGTAATCCGTATTTGGT (site TCTAGTGCTAC)”, the “recombinant UMI read abundance (log10)” value was 0.0125. The value for “CCTATATCATGGACCGGTTTTCCCGGTAATCCGTATTTGTC (site CCAATATCTGA)” was 0; that for “CCTATATCATGGACCGGTTTTCCCGGTAATCCGTATTTGTC (site CCCATATCTGA)” was 0.00678; that for “CCTATATCATGGACCGGTTTTCCCGGTAATCCGTATTTGTC (site CCGATATCTGA)” was 0. Regarding “CCTATATCATGGACCGGTTTTCCCGGTAATCCGTATTTGTC (site CCTATATCTGA)”, the “recombinant UMI read abundance (log10)” value was found to be 0. With “CCTCACACATGGACCGGTTTTCCCGGTAATCCGTATTTGTA (site CCACACACTTA)”, the “recombinant UMI read abundance (log10)” value came out at 0. Take “CCTCACACATGGACCGGTTTTCCCGGTAATCCGTATTTGTA (site CCCCACACTTA)”: the “recombinant UMI read abundance (log10)” value is 0.0116. As for “CCTCACACATGGACCGGTTTTCCCGGTAATCCGTATTTGTA (site CCGCACACTTA)”, the figure is 0.0283; as for “CCTCACACATGGACCGGTTTTCCCGGTAATCCGTATTTGTA (site CCTCACACTTA)”, 0.166; as for “CCTCGAGCATGGACCGGTTTTCCCGGTAATCCGTATTTGTG (site CCTCGAGCTCA)”, 0.234. As for “CCTCTTGCATGGACCGGTTTTCCCGGTAATCCGTATTTGAG (site CCTCTTGCTCT)”, the figure is 0.0146. Regarding “CCTCTTTCATGGACCGGTTTTCCCGGTAATCCGTATTTGAG (site CCTCTTTCTCT)”, the “recombinant UMI read abundance (log10)” value came out at 0.00323. The value for “CCTGAAGCATGGACCGGTTTTCCCGGTAATCCGTATTTGAT (site CCTAAAGCTAT)” was 0.231. The value for “CCTGAAGCATGGACCGGTTTTCCCGGTAATCCGTATTTGAT (site CCTCAAGCTAT)” was 0; that for “CCTGAAGCATGGACCGGTTTTCCCGGTAATCCGTATTTGAT (site CCTGAAGCTAT)” was 0.209; that for “CCTGAAGCATGGACCGGTTTTCCCGGTAATCCGTATTTGAT (site CCTTAAGCTAT)” was 0. The value for “CCTGATACATGGACCGGTTTTCCCGGTAATCCGTATTTGGC (site CCTAATACTGC)” was 0; that for “CCTGATACATGGACCGGTTTTCCCGGTAATCCGTATTTGGC (site CCTCATACTGC)” was 0. “CCTGATACATGGACCGGTTTTCCCGGTAATCCGTATTTGGC (site CCTGATACTGC)”: the “recombinant UMI read abundance (log10)” value came out at 0. Consider “CCTGATACATGGACCGGTTTTCCCGGTAATCCGTATTTGGC (site CCTTATACTGC)”, for which the “recombinant UMI read abundance (log10)” value worked out at 0. Take “CCTGCACCATGGACCGGTTTTCCCGGTAATCCGTATTTGGA (site CCTGCACCTTC)”: the “recombinant UMI read abundance (log10)” value stood at 0.00678.

As to “CCTGCTACATGGACCGGTTTTCCCGGTAATCCGTATTTGCG (site CCTGCTACTCG)”, the “recombinant UMI read abundance (log10)” value turned out to be 0.0136.

Turning to “CCTGGCACATGGACCGGTTTTCCCGGTAATCCGTATTTGAA (site CCTGGCACTTT)”, the “recombinant UMI read abundance (log10)” value worked out at 0.0111.

Turning to “CCTGGTGCATGGACCGGTTTTCCCGGTAATCCGTATTTGTA (site CCTGGTGCTTA)”, the “recombinant UMI read abundance (log10)” value was determined as 0.698. As for “CCTGTAGCATGGACCGGTTTTCCCGGTAATCCGTATTTGAG (site CCTGTAGCTCT)”, the figure is 0.443. As for “CCTGTATCATGGACCGGTTTTCCCGGTAATCCGTATTTGCA (site ACAGTATCTTG)”, the “recombinant UMI read abundance (log10)” value stood at 0.

For the sequence “CCTGTATCATGGACCGGTTTTCCCGGTAATCCGTATTTGCA (site CCTGTATCTTG)”, the “recombinant UMI read abundance (log10)” value worked out at 0. The value for “CCTGTCGCATGGACCGGTTTTCCCGGTAATCCGTATTTGAG (site CCTGTCGCTCT)” was 0.909; that for “CCTGTGGCATGGACCGGTTTTCCCGGTAATCCGTATTTGTA (site CCTGTGGCTTA)” was 0.327; that for “CCTTAAGCATGGACCGGTTTTCCCGGTAATCCGTATTTGAT (site CCTAAAGCTAT)” was 0.

Take “CCTTAAGCATGGACCGGTTTTCCCGGTAATCCGTATTTGAT (site CCTCAAGCTAT)”: the “recombinant UMI read abundance (log10)” value was determined as 0.0107. For “CCTTAAGCATGGACCGGTTTTCCCGGTAATCCGTATTTGAT (site CCTGAAGCTAT)”, the “recombinant UMI read abundance (log10)” value was found to be 0. As for “CCTTAAGCATGGACCGGTTTTCCCGGTAATCCGTATTTGAT (site CCTTAAGCTAT)”, the figure is 0.00726; as for “CCTTAGACATGGACCGGTTTTCCCGGTAATCCGTATTTGAG (site CATTAGACTCT)”, 0.0191.

“CCTTAGACATGGACCGGTTTTCCCGGTAATCCGTATTTGAG (site CCTTAGACTCT)”: the “recombinant UMI read abundance (log10)” value was 0.0167. The value for “CCTTAGACATGGACCGGTTTTCCCGGTAATCCGTATTTGAG (site CGTTAGACTCT)” was 0.0159; that for “CCTTAGACATGGACCGGTTTTCCCGGTAATCCGTATTTGAG (site CTTTAGACTCT)” was 0.0107. As for “CCTTGTCCATGGACCGGTTTTCCCGGTAATCCGTATTTGCG (site CCTTGTCCTCG)”, the “recombinant UMI read abundance (log10)” value amounted to 0.00291. As for “CCTTTACCATGGACCGGTTTTCCCGGTAATCCGTATTTGAA (site CCTTTACCTTT)”, the figure is 0.019; as for “CCTTTCTCATGGACCGGTTTTCCCGGTAATCCGTATTTGCG (site CCTTTCTCTCG)”, 0. The value for “CCTTTGCCATGGACCGGTTTTCCCGGTAATCCGTATTTGTG (site CCTTTGCCTCA)” was 0.00549; that for “CGAACATCATGGACCGGTTTTCCCGGTAATCCGTATTTGCC (site CGAACATCTGG)” was 0.671; that for “CGAACATCATGGACCGGTTTTCCCGGTAATCCGTATTTGCC (site CGATCATCTAG)” was 0. Consider “CGAACATCATGGACCGGTTTTCCCGGTAATCCGTATTTGCT (site CGAACATCTAG)”, for which the “recombinant UMI read abundance (log10)” value is 2.13. Take “CGAACATCATGGACCGGTTTTCCCGGTAATCCGTATTTGCT (site CGACCATCTAG)”: the “recombinant UMI read abundance (log10)” value came to 0.469.

“CGAACATCATGGACCGGTTTTCCCGGTAATCCGTATTTGCT (site CGAGCATCTAG)”: the “recombinant UMI read abundance (log10)” value is 1.39. As for “CGAACATCATGGACCGGTTTTCCCGGTAATCCGTATTTGCT (site CGATCATCTAG)”, the figure is 0; as for “CGAACATCATGGACCGGTTTTCCCGGTAATCCGTATTTGCT (site CGCACATCTAG)”, 0.

On to “CGAACATCATGGACCGGTTTTCCCGGTAATCCGTATTTGCT (site CGGACATCTAG)”, for which the “recombinant UMI read abundance (log10)” value was determined as 0.583. The value for “CGAACATCATGGACCGGTTTTCCCGGTAATCCGTATTTGCT (site CGTACATCTAG)” was 0; that for “CGAACTACATGGACCGGTTTTCCCGGTAATCCGTATTTGAG (site CGAACTACTCT)” was 1.95; that for “CGAAGCCCATGGACCGGTTTTCCCGGTAATCCGTATTTGAT (site CGAAGCCCTAT)” was 1.22. Turning to “CGACAATCATGGACCGGTTTTCCCGGTAATCCGTATTTGCT (site CGACAATCTAG)”, the “recombinant UMI read abundance (log10)” value was 2.77. As for “CGACAATCATGGACCGGTTTTCCCGGTAATCCGTATTTGCT (site CGATCATCTAG)”, the “recombinant UMI read abundance (log10)” value turned out to be 0. Take “CGACATACATGGACCGGTTTTCCCGGTAATCCGTATTTGCG (site CGACATACTCG)”: the “recombinant UMI read abundance (log10)” value stood at 2.76.

As for “CGACCATCATGGACCGGTTTTCCCGGTAATCCGTATTTGCG (site CGACCATCTCG)”, the “recombinant UMI read abundance (log10)” value worked out at 2.23. The value for “CGACCATCATGGACCGGTTTTCCCGGTAATCCGTATTTGCG (site CGATCATCTAG)” was 0; that for “CGACCCACATGGACCGGTTTTCCCGGTAATCCGTATTTGGT (site CGACCCACTAC)” was 1.23. The value for “CGACCGACATGGACCGGTTTTCCCGGTAATCCGTATTTGTT (site CGAACGACTAA)” was 0.0187.
